Test results taken from US9247740B2, “Isoxazoline derivatives as insecticidal compounds” (Syngenta Participations AG, priority 2011, dated 2016).

What was measured:
Format in all cases: in vivo
[1] = system: Spodoptera littoralis (Egyptian Cotton Leafworm); experiment: Spodoptera littoralis leaf disc spray test; conditions: foliar, 72 h, 200 ppm spray on cotton leaf discs, mortality, feeding behavior, growth regulation 3 days after treatment
Protocol: This Example illustrates the insecticidal and acaricidal properties of compounds of formula (I). Tests were performed as follows:

[2] = system: Heliothis virescens (Tobacco Budworm); experiment: Heliothis virescens egg test on artificial diet; conditions: 96 h, 200 ppm (concentration in well 18 ppm), eggs 0-24 h old on artificial diet, egg mortality, larval mortality, growth regulation after 4 days
Text: (§1) This Example illustrates the insecticidal and acaricidal properties of compounds of formula (I).

[3] = system: Plutella xylostella (Diamond Back Moth); experiment: Plutella xylostella larval test on artificial diet; conditions: 144 h, 200 ppm (concentration in well 18 ppm), L2 larvae, larval mortality and growth regulation after 6 days
Text: as §1

[4] = system: Diabrotica balteata (Corn Root Worm); experiment: Diabrotica balteata larval test on artificial diet; conditions: 120 h, 200 ppm (concentration in well 18 ppm), L2 larvae, larval mortality and growth regulation after 5 days
Text: as §1

[5] = system: Thrips tabaci (Onion Thrips); experiment: Thrips tabaci leaf disc spray test; conditions: foliar, 168 h, 200 ppm spray on sunflower leaf discs, mixed ages, mortality after 7 days
Text: as §1

[6] = system: Tetranychus urticae (Two-Spotted Spider Mite); experiment: Tetranychus urticae leaf disc spray test; conditions: foliar, 192 h, 200 ppm spray on bean leaf discs, mixed ages, egg, larval and adult mortality 8 days later
Text: as §1

Measured: pest or weed control at 200 ppm

Cc1cc(C2=NOC(c3cc(C(F)(F)F)n(CC(F)F)c3)(C(F)(F)F)C2)ccc1C(=O)NC1CSC1 (stereo not drawn) [Compound C007, 4-[5-[1-(2,2-difluoroethyl)-5-(trifluoromethyl)pyrrol-3-yl]-5-(trifluoromethyl)-4H-isoxazol-3-yl]-2-methyl-N-(thietan-3-yl)benzamide]
≥ 80%: all assays above

Cc1cc(C2=NOC(c3cc(Cl)cc(Cl)c3)(C(F)(F)F)C2)ccc1C(=O)NCC1CS(=O)(=O)C1 (stereo not drawn) [Compound A132, 4-[5-(3,5-dichlorophenyl)-5-(trifluoromethyl)-4H-isoxazol-3-yl]-2-methyl-N-(1.1-dioxo-thietan-3-ylmethyl)benzamide]
≥ 80%: all assays above

Cc1cc(C2=NO[C@@](c3cc(Cl)c(F)c(Cl)c3)(C(F)(F)F)C2)ccc1C(=O)NC1CS(=O)(=O)C1 [Compound C18, 4-[(5S)-5-(3,5-dichloro-4-fluoro-phenyl)-5-(trifluoromethyl)-4H-isoxazol-3-yl]-N-(1,1-dioxothietan-3-yl)-2-methyl-benzamide]
≥ 80%: all assays above

Cc1cc(C2=NOC(c3cc(C(F)(F)F)n(C)c3)(C(F)(F)F)C2)ccc1C(=O)NC1CSC1 (stereo not drawn) [Compound C006, 2-methyl-4-[5-[1-methyl-5-(trifluoromethyl)pyrrol-3-yl]-5-(trifluoromethyl)-4H-isoxazol-3-yl]-N-(thietan-3-yl)benzamide]
not listed: [2]
≥ 80%: all other assays above

Cc1cc(C2=NOC(c3cc(Cl)cc(Cl)c3)(C(F)(F)F)C2)ccc1C(=O)NCC1CSC1 (stereo not drawn) [Compound A130, 4-[5-(3,5-dichlorophenyl)-5-(trifluoromethyl)-4H-isoxazol-3-yl]-2-methyl-N-(thietan-3-ylmethyl)benzamide]
≥ 80%: all assays above

Cc1cc(C2=NO[C@@](c3cc(Cl)c(Cl)c(Cl)c3)(C(F)(F)F)C2)ccc1C(=O)N[C@H]1C[S@@+]([O-])C1 [Compound C17, 2-methyl-N-(1-oxothietan-3-yl)-4-[(5S)-5-(3,4,5-trichlorophenyl)-5-(trifluoromethyl)-4H-isoxazol-3-yl]benzamide]
≥ 80%: all assays above

Cc1cc(C2=NO[C@@](c3cc(Cl)cc(Cl)c3)(C(F)(F)F)C2)ccc1C(=O)NCC1CS(=O)(=O)C1 [Compound C20, 4-[(5S)-5-(3,5-dichlorophenyl)-5-(trifluoromethyl)-4H-isoxazol-3-yl]-N-[(1,1-dioxothietan-3-yl)methyl]-2-methyl-benzamide]
≥ 80%: all assays above

Cc1cc(C2=NOC(c3cc(Cl)cc(Cl)c3)(C(F)(F)F)C2)ccc1C(=O)N1CC2(CSC2)C1 (stereo not drawn) [Compound C013, [4-[5-(3,5-dichlorophenyl)-5-(trifluoromethyl)-4H-isoxazol-3-yl]-2-methyl-phenyl]-(6-thia-2-azaspiro[3.3]heptan-2-yl)methanone]
≥ 80%: [3] | [4] | [5] | [6]

CCc1cc(C2=NOC(c3cc(Cl)cc(Cl)c3)(C(F)(F)F)C2)ccc1C(=O)NC1CSC1 (stereo not drawn) [Compound B69, 4-[5-(3,5-dichlorophenyl)-5-trifluoromethyl-4H-isoxazol-3-yl]-2-ethyl-N-(thietan-3-yl)benzamide]
≥ 80%: all assays above

O=C(NC1CSC1)c1ccc(C2=NOC(c3cc(Cl)cc(Cl)c3)(C(F)(F)F)C2)cc1[N+](=O)[O-] (stereo not drawn) [Compound B56, 4-[5-(3,5-dichlorophenyl)-5-trifluoromethyl-4H-isoxazol-3-yl]-2-nitro-N-(thietan-3-yl)benzamide]
≥ 80%: all assays above

O=C(N[C@H]1C[S@@+]([O-])C1)c1ccc(C2=NO[C@@](c3cc(Cl)cc(Cl)c3)(C(F)(F)F)C2)cc1Cl [Compound C15, 2-chloro-4-[(5S)-5-(3,5-dichlorophenyl)-5-(trifluoromethyl)-4H-isoxazol-3-yl]-N-(1-oxidothietan-1-ium-3-yl)benzamide]
≥ 80%: all assays above

Cc1cc(C2=NO[C@@](c3cc(Cl)cc(Cl)c3)(C(F)(F)F)C2)cnc1C(=O)N[C@H]1C[S@@+]([O-])C1 [Compound C16, 5-[(5S)-5-(3,5-dichlorophenyl)-5-(trifluoromethyl)-4H-isoxazol-3-yl]-3-methyl-N-(1-oxidothietan-1-ium-3-yl)pyridine-2-carboxamide]
≥ 80%: all assays above
